Test results reported in ChEMBL document CHEMBL1909046, “DrugMatrix in vitro pharmacology data”.

What was measured:
[1] = target: T1, Alpha-1D adrenergic receptor (Homo sapiens, UniProt P25100); type: cell membranes, HEK293, Membrane; conditions: for Ki: read-out: Ki; on all read-outs here: in other assays of this panel Not Active means under 50% inhibition at 10 µM
T1 sequence (P25100 whole entry): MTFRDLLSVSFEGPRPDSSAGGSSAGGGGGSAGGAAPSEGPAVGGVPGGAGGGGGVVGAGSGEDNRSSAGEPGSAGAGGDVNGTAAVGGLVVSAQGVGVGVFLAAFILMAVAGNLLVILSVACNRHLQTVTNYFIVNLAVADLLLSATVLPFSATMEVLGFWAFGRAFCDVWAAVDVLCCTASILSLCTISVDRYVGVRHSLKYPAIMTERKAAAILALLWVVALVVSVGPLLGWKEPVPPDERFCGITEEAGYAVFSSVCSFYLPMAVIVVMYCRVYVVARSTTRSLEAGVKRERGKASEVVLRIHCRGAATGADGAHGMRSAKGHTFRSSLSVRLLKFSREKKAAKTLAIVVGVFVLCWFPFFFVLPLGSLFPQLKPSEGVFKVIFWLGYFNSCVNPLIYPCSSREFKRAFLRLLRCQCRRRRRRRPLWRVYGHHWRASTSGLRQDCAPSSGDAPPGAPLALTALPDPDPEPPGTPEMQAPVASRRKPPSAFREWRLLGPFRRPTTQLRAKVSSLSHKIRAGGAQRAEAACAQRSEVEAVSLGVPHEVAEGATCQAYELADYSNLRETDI

[2] = target: Beta-1 adrenergic receptor (Homo sapiens, UniProt P08588); experiment: DRUGMATRIX: Adrenergic beta1 radioligand binding (ligand: [125I] Cyanopindolol); type: cell membranes, CHO-K1, Membrane; conditions: Not Active = under 50% inhibition at 10 µM
Thromboxane-A synthase = target: T2, Thromboxane-A synthase (Homo sapiens, UniProt P24557); experiment: biochemical; type: tissue-based, Platelet; conditions: platelet;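 further: enzyme inhibition assay with PGH2 supplied as substrate; in other assays of this panel Not Active means under 50% inhibition at 10 µM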
T2 sequence (P24557 whole entry): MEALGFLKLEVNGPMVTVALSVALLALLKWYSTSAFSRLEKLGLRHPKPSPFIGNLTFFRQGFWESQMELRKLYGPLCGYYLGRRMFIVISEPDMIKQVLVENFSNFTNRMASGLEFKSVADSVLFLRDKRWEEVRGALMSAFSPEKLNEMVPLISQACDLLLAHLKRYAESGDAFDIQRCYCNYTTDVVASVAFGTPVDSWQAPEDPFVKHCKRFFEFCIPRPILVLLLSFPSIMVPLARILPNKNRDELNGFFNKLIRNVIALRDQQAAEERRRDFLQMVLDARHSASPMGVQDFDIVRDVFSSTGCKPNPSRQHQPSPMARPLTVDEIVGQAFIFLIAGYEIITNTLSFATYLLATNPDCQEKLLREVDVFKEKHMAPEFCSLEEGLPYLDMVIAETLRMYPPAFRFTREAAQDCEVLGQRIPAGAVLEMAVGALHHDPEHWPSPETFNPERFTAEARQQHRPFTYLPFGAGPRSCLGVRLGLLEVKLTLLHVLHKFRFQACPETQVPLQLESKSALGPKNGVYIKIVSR

[3] = target: T3, Cysteinyl leukotriene receptor 1 (Homo sapiens, UniProt Q9Y271); type: cell membranes, Membrane; conditions: cho-k1; further: in other assays of this panel Not Active means under 50% inhibition at 10 µM
T3 sequence (Q9Y271 whole entry): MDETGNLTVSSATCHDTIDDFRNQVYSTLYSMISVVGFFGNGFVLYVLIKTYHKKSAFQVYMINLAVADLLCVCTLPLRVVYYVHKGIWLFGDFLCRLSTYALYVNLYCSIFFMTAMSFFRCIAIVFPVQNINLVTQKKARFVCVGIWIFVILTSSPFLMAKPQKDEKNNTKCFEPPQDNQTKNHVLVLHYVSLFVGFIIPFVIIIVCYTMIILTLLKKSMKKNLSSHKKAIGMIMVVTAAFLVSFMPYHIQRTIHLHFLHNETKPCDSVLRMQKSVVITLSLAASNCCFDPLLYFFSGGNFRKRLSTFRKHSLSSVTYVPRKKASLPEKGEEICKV

[4] = DRUGMATRIX: Phosphodiesterase PDE3 enzyme inhibition (substrate: [3H]cAMP + cAMP); type: tissue-based, Homo sapiens; conditions: platelet; Not Active = under 50% inhibition at 10 µM
[5] = target: T4, Receptor-type tyrosine-protein phosphatase C (Homo sapiens, UniProt P08575); design: species or system Escherichia coli;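 further: inhibition of CD45 enzyme activity measured using DiFMUP as substrate; in other assays of this panel Not Active means under 50% inhibition at 10 µM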
T4 sequence (P08575 whole entry): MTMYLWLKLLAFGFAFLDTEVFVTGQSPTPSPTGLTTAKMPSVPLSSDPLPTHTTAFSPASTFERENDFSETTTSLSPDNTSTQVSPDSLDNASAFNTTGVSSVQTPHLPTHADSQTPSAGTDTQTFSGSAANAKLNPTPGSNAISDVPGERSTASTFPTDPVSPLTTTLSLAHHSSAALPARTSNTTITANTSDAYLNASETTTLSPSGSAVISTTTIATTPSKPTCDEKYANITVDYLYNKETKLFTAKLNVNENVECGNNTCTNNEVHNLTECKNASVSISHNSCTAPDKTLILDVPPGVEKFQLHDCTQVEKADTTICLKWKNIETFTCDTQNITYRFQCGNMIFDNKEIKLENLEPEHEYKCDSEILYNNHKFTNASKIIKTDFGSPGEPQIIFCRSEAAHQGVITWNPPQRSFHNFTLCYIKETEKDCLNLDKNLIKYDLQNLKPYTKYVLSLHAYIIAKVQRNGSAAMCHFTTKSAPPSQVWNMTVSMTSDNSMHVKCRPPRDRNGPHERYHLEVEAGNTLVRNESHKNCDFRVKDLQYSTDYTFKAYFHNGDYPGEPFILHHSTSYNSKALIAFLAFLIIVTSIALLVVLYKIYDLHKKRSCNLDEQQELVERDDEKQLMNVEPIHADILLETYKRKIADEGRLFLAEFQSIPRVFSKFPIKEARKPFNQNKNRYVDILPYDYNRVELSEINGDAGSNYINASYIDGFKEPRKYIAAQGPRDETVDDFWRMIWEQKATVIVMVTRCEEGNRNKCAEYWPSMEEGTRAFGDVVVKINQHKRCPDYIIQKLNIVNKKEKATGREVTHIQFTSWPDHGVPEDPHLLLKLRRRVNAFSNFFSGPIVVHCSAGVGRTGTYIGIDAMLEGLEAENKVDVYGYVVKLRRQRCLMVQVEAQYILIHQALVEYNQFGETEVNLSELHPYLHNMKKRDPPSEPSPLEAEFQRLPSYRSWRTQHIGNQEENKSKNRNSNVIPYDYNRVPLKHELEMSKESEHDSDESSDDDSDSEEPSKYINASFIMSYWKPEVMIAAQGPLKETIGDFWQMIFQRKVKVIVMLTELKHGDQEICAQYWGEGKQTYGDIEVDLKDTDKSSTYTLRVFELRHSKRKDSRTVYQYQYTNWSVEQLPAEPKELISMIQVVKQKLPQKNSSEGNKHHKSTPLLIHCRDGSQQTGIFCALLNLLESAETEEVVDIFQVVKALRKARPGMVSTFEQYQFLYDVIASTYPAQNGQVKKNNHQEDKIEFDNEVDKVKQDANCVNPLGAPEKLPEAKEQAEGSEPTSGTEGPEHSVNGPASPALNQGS

Sequence of Beta-1 adrenergic receptor (P08588 whole entry): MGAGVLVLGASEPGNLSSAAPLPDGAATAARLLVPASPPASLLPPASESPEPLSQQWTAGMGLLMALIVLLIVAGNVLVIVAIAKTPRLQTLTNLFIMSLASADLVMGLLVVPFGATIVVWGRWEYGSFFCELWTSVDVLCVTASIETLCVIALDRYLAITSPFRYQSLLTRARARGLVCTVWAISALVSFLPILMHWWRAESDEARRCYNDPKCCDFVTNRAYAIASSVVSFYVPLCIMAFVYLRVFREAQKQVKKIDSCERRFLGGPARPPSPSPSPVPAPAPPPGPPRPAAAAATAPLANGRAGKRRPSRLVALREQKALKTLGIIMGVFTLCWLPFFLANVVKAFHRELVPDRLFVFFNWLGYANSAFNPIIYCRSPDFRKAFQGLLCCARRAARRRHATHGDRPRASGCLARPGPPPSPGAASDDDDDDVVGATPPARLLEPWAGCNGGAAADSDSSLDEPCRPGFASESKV

Row | Structure (SMILES) | IC50 ([1]; read-out: IC50) | Ki [1] | IC50 ([2]; cho-k1) | IC50 (Thromboxane-A synthase) | IC50 [3] | IC50 [4] | Ki [4] | IC50 [5] | IC50 ([1]; hek293) | IC50 ([2]; read-out: IC50) | Ki ([2]; read-out: Ki)
1 | CN1C[C@H](C(=O)N[C@]2(C)O[C@@]3(O)[C@@H]4CCCN4C(=O)[C@H](Cc4ccccc4)N3C2=O)C[C@@H]2c3cccc4[nH]cc(c34)C[C@H]21 [DIHYDROERGOTAMINE] | 29 nM | 14 nM | Not Active | Not Active | Not Active | Not Active | Not Active | Not Active |  |  | 
2 | Cc1c(N(C)CS(=O)(=O)[O-])c(=O)n(-c2ccccc2)n1C.[Na+] [DIPYRONE SODIUM] |  |  | Not Active | Not Active | Not Active | Not Active | Not Active | Not Active | Not Active |  | 
3 | CC(CCc1ccc(O)cc1)NCCc1ccc(O)c(O)c1 (configuration not stated) [DOBUTAMINE] | 114 nM | 56 nM |  | Not Active | Not Active | Not Active | Not Active | Not Active |  | 1940 nM | 1120 nM
4 | CCn1cc(C(=O)O)c(=O)c2cc(F)c(N3CCNCC3)nc21 [ENOXACIN] |  |  | Not Active | Not Active | Not Active | Not Active | Not Active | Not Active | Not Active |  | 
5 | CCC(=O)O[C@H]1[C@H](O[C@@H]2[C@@H](C)[C@H](O[C@H]3C[C@@](C)(OC)[C@@H](O)[C@H](C)O3)[C@@H](C)C(=O)O[C@H](CC)[C@@](C)(O)[C@H](O)[C@@H](C)C(=O)[C@H](C)C[C@@]2(C)O)O[C@H](C)C[C@@H]1N(C)C [ERYTHROMYCIN PROPIONATE] |  |  | Not Active | Not Active | Not Active | Not Active | Not Active | Not Active | Not Active |  | 
6 | C=C(CC)C(=O)c1ccc(OCC(=O)O)c(Cl)c1Cl [ETHACRYNIC ACID] |  |  | Not Active | Not Active | Not Active | Not Active | Not Active | Not Active | Not Active |  | 
7 | C#C[C@]1(O)CC[C@H]2[C@@H]3CCc4cc(O)ccc4[C@H]3CC[C@@]21C [ETHINYL ESTRADIOL] |  |  | Not Active | Not Active | Not Active | Not Active | Not Active | Not Active | Not Active |  | 
8 | OCCO [ETHYLENE GLYCOL] |  |  | Not Active | Not Active | Not Active | Not Active | Not Active | Not Active | Not Active |  | 
9 | CC(=O)OCC(CCn1cnc2cnc(N)nc21)COC(C)=O [FAMCICLOVIR] |  |  | Not Active | Not Active | Not Active | Not Active | Not Active | Not Active | Not Active |  | 
10 | O=C(O)Cc1ccc(-c2ccccc2)cc1 [FELBINAC] |  |  | Not Active | Not Active | Not Active | Not Active | Not Active | Not Active | Not Active |  | 
11 | CCOC(=O)C1=C(C)NC(C)=C(C(=O)OC)C1c1cccc(Cl)c1Cl (configuration not stated) [FELODIPINE] |  |  | Not Active | Not Active | Not Active | Not Active | Not Active | Not Active | Not Active |  | 
12 | CC(C(=O)O)c1ccc(-c2ccccc2)c(F)c1 (configuration not stated) [FLURBIPROFEN] |  |  | Not Active | Not Active | Not Active | Not Active | Not Active | Not Active | Not Active |  | 
13 | Cc1cn[nH]c1 [FOMEPIZOLE] |  |  | Not Active | Not Active | Not Active | Not Active | Not Active | Not Active | Not Active |  | 
14 | NC[C@@H]1O[C@H](O[C@H]2[C@@H](O)[C@H](O[C@@H]3[C@@H](O)[C@H](N)C[C@H](N)[C@H]3O[C@H]3O[C@H](CN)[C@@H](O)[C@H](O)[C@H]3N)O[C@@H]2CO)[C@H](N)[C@@H](O)[C@@H]1O [FRAMYCETIN] |  |  | Not Active | Not Active | Not Active | Not Active | Not Active | Not Active | Not Active |  | 
15 | C[C@H]([C@](O)(Cn1cncn1)c1ccc(F)cc1F)S(C)(=O)=O [GENACONAZOLE] |  |  | Not Active | Not Active | Not Active | Not Active | Not Active | Not Active | Not Active |  | 
16 | Cc1c(F)c(N2CCNC(C)C2)cc2c1c(=O)c(C(=O)O)cn2C1CC1 (configuration not stated) [GREPAFLOXACIN] |  |  | Not Active | Not Active | Not Active | Not Active | Not Active | Not Active | Not Active |  | 
17 | COc1ccccc1OCC(O)CO (configuration not stated) [GUAIFENESIN] |  |  | Not Active | Not Active | Not Active | Not Active | Not Active | Not Active | Not Active |  | 
18 | N=C(N)N/N=C/c1c(Cl)cccc1Cl [GUANABENZ] | 472 nM | 232 nM | Not Active | Not Active | Not Active | Not Active | Not Active | Not Active |  |  | 
19 | C[C@]12CCC(=O)C=C1CC[C@@H]1[C@@H]2[C@@H](O)C[C@@]2(C)[C@H]1CC[C@]2(O)C(=O)CO [HYDROCORTISONE] |  |  | Not Active | Not Active | Not Active | Not Active | Not Active | Not Active | Not Active |  | 
